Patent EP0079141A1, “Aminoresorcinol derivatives” (ONO PHARMACEUTICAL CO., LTD., priority 1981, dated 1983)
Structures can show the parent of a compound that is named as a salt.

What was measured:
5-lipoxygenase [1] = molecular target: T1, 5-lipoxygenase (Cavia porcellus, UniProt A0A286X958); experiment: Enzyme assay using the 105,000 x g supernate of sonicated polymorphonuclear leukocytes: production of 5-HETE, 5,12-diHETE and LTB; type: biochemical; conditions: supernate enzyme of guinea pig polymorphonuclear leukocytes, 5 min at 30°C, 1 mM calcium chloride, read-out: concentration for a 50% inhibition of 5-lipoxygenase, i.e. IC50
T1 sequence (A0A286X958 1-674): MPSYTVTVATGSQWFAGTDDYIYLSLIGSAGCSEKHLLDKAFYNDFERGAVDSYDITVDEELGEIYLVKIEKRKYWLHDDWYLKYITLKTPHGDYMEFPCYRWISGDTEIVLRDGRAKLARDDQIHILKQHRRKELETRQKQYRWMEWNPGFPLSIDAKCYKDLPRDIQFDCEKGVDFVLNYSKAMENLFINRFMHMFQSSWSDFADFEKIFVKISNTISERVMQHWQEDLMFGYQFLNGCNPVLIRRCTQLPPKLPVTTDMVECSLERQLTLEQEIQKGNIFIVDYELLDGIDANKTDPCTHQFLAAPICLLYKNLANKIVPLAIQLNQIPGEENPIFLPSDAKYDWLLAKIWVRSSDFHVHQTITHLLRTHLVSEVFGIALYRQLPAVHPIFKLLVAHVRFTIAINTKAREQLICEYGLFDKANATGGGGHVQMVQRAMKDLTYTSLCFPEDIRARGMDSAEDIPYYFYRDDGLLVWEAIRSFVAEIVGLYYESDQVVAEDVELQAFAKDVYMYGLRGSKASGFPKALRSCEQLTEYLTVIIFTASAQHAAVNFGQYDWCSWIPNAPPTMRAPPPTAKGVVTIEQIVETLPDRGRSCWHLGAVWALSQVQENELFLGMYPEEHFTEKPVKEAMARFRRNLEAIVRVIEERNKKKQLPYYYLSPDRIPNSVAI
Method: Further, in another assay system, the inhibitory activity of compounds of the present invention on 5-lipoxygenase only was also evaluated by using an enzyme prepared from polymorphonuclear leukocytes of guinea pig. Guinea pig was treated by casein and harvested polymcrphonuclear leukocytes from cavity were sonicated, followed by the centrifugation at 105,000 x g. The supernate was used as an enzyme throughout this work. The supernate (100 - 500 µg of protein) was incubated for 5 minutes at 30°C with [^14C] arachidonic acid and 1 mM calcium chloride in the presence or in the absence of test compound. The reaction was terminated by the addition of ether.

5-lipoxygenase [2] = molecular target: T1, 5-lipoxygenase; experiment: Screening assay using polymorphonuclear leukocytes: production of 5-HETE from [14C] arachidonic acid; type: cell-based; conditions: intact polymorphonuclear leukocytes from guinea pig, 5 min preincubation and 5 min incubation at 37°C, read-out: concentration for 50% inhibition on 5-lipoxygenase
Method: The experiments for screening using polymorphonuclear leukocytes were carried out as follows: The reaction mixture (0.1 ml) containing 5 µmole of potassium phosphate at pE 7.4, 0.1 µmole of calcium chloride, polymorphonuclear leukocytes prepared from guinea pigs (4 x 10^7 cells) and test compound, was preincubated for 5 minutes at 37°C. The reaction was started by the addition of [^14C) arachidonic acid (2.2 x 10^5 dpm, 1.8 nmole), followed by the incubation at 37°C for 5 minutes. The reaction was terminated by the addition of 0.3 ml of a mixture of ether/methanol/lM citric acid (30/4/1). The organic phase (20 µl) was applied to silica gel plate. Thin layer chromatography was performed to separate each product with solvent system of ether/petroleum ether/acetic acid (85/15/0.1).
Activity of 5-lipoxygenase and cyclooxygenase were calculated from the measurements of the production of 5-HETE, and 12L-hydroxy-5,8,lC-heptatrienoic acid (i.e. HHT) or thromboxane B2 (i.e. TXB2), respectively [it has been known that HHT and TXB2 are the last products of the system concerning cyclooxygenase in the arachidonate cascade]. The concentrations for 50% inhibitions on 5-lipoxygenase and on cyclooxygenase were evaluated by using the concentration of compounds of the present invention required 50% inhibitions on the productions of 5-HETE, and HHT or TXB2, respectively.

Row | IC50 (5-lipoxygenase [1]) [nM] | IC50 (5-lipoxygenase [2]) [nM] | SMILES
1 | 2630 | – | Nc1c(O)c(Cl)cc(C(=O)c2ccc(Cl)cc2)c1O [2-Amino-4-chloro-6-(4-chlorobenzoyl)resorcinol hydrochloride]
2 | 2000 | – | COC(c1ccc(Cl)cc1)c1cc(Cl)c(O)c(N)c1O (centres unmarked) [2-Amino-4-chloro-6-(a-methoxy-4-chlorobenzyl)resorcinol hydrochloride]
3 | 400 | 300 | Nc1c(O)ccc(C(=O)c2ccccc2)c1O [2-Amino-6-benzoylresorcinol hydrochloride]
4 | 6670 | – | Nc1cc(C(=O)c2ccccc2)c(O)cc1O [4-Amino-6-benzoylresorcinol hydrochloride]
